Results on 18 compounds are retold here after ChEMBL document CHEMBL3045303, “An efficient, solvent-free microwave-assisted synthesis and antimicrobial screening of 1,6-dihydropyrimidine analogues” (2012).

In brackets after ≈: the same amount, converted by molar mass.

Common to all, as to format: functional
One assay has as its system Escherichia coli. Put plainly: Antimicrobial activity against Escherichia coli MTCC 443 after 24 hr by serial broth dilution method. The conditions noted are these: MTCC 443, 24 h.
In a further assay the test system is Pseudomonas aeruginosa. The experiment in a line: Antimicrobial activity against Pseudomonas aeruginosa MTCC 1688 after 24 hr by serial broth dilution method. The conditions noted are these: MTCC 1688, 24 h.
For the next assay, the system named is Staphylococcus aureus. The experiment in a line: Antimicrobial activity against Staphylococcus aureus MTCC 96 after 24 hr by serial broth dilution method. Particulars: MTCC 96, 24 h.
The subject of another assay is Streptococcus pyogenes. The experiment in a line: Antimicrobial activity against Streptococcus pyogenes MTCC 442 after 24 hr by serial broth dilution method. The conditions noted are these: MTCC 442, 24 h.
A further assay concerns Candida albicans. The experiment in a line: Antimicrobial activity against Candida albicans MTCC 227 after 72 hr by serial broth dilution method. Particulars: MTCC 227, 72 h.
Another assay relates to Aspergillus niger. The experiment in a line: Antimicrobial activity against Aspergillus niger MTCC 282 after 72 hr by serial broth dilution method. Particulars: MTCC 282, 72 h.
The subject of a further assay is Aspergillus clavatus. The experiment in a line: Antimicrobial activity against Aspergillus clavatus MTCC 1323 after 72 hr by serial broth dilution method. Particulars: MTCC 1323, 72 h.

In the case of `Cc1cccc(C2C=C(c3ccc(N)cc3)N=C(SCCCC#N)N2)c1` (configuration not stated), the MIC with Escherichia coli was determined as 1000 µg/mL (≈ 2760 µM); in the assay on Pseudomonas aeruginosa, 500 µg/mL (≈ 1380 µM); against Staphylococcus aureus, 1000 µg/mL (≈ 2760 µM); with Streptococcus pyogenes, 500 µg/mL (≈ 1380 µM); in the assay with Candida albicans, 1000 µg/mL (≈ 2760 µM); with Aspergillus niger it was 500 µg/mL (≈ 1380 µM). The same compound gave an MIC against Aspergillus clavatus of 1000 µg/mL (≈ 2760 µM).
With `N#CCCCSC1=NC(c2ccc(N)cc2)=CC(c2ccc(O)cc2)N1` (configuration not stated), the MIC is 25 µg/mL (≈ 68.6 µM) in the assay with Escherichia coli; 1000 µg/mL (≈ 2740 µM) with Pseudomonas aeruginosa; 500 µg/mL (≈ 1370 µM) in the assay with Staphylococcus aureus; 50 µg/mL (≈ 137 µM) against Streptococcus pyogenes; 500 µg/mL (≈ 1370 µM) against Candida albicans; 500 µg/mL (≈ 1370 µM) against Aspergillus niger. The compound also returned an MIC in the assay on Aspergillus clavatus of 200 µg/mL (≈ 549 µM).
Turning to `Cc1ccc(C2C=C(c3ccc(N)cc3)N=C(SCCCC#N)N2)cc1` (configuration not stated), the MIC with Escherichia coli worked out at 100 µg/mL (≈ 276 µM); in the assay on Pseudomonas aeruginosa, 500 µg/mL (≈ 1380 µM); with Staphylococcus aureus, 50 µg/mL (≈ 138 µM); in the assay on Streptococcus pyogenes it was 500 µg/mL (≈ 1380 µM); with Candida albicans it was 1000 µg/mL (≈ 2760 µM); against Aspergillus niger, 50 µg/mL (≈ 138 µM). Moreover, the minimum inhibitory concentration (MIC) against Aspergillus clavatus is 100 µg/mL (≈ 276 µM).
With `COC1=CC(=O)C[C@@H](C)[C@]12Oc1c(Cl)c(OC)cc(OC)c1C2=O` [GRISEOFULVIN], the MIC against Candida albicans was determined as 500 µg/mL (≈ 1420 µM); in the assay with Aspergillus niger, 100 µg/mL (≈ 283 µM); in the assay with Aspergillus clavatus, 100 µg/mL (≈ 283 µM).
Turning to `COc1ccc(C2C=C(c3ccc(N)cc3)N=C(SCCCC#N)N2)cc1` (configuration not stated), the minimal inhibitory concentration (MIC) with Escherichia coli amounted to 100 µg/mL (≈ 264 µM); with Pseudomonas aeruginosa, 25 µg/mL (≈ 66.1 µM); in the assay on Staphylococcus aureus it was 100 µg/mL (≈ 264 µM); with Streptococcus pyogenes it was 500 µg/mL (≈ 1320 µM); in the assay with Candida albicans it was 500 µg/mL (≈ 1320 µM); in the assay on Aspergillus niger, 200 µg/mL (≈ 528 µM). The compound further registered an MIC with Aspergillus clavatus of 50 µg/mL (≈ 132 µM).
Turning to `COc1cc(C2C=C(c3ccc(N)cc3)N=C(SCCCC#N)N2)ccc1O` (configuration not stated), the minimum inhibitory concentration (MIC) worked out at 25 µg/mL (≈ 63.4 µM) in the assay on Escherichia coli; 100 µg/mL (≈ 253 µM) against Pseudomonas aeruginosa; 250 µg/mL (≈ 634 µM) against Staphylococcus aureus; 100 µg/mL (≈ 253 µM) against Streptococcus pyogenes; 100 µg/mL (≈ 253 µM) against Candida albicans; 100 µg/mL (≈ 253 µM) in the assay on Aspergillus niger. In the assay on Aspergillus clavatus, this compound registered an MIC of 100 µg/mL (≈ 253 µM).
For `N#CCCCSC1=NC(c2ccc(N)cc2)=CC(c2ccccc2)N1` (configuration not stated), the MIC against Escherichia coli came to 500 µg/mL (≈ 1430 µM); against Pseudomonas aeruginosa it was 50 µg/mL (≈ 143 µM); in the assay with Staphylococcus aureus, 500 µg/mL (≈ 1430 µM); against Streptococcus pyogenes it was 1000 µg/mL (≈ 2870 µM); against Candida albicans, 1000 µg/mL (≈ 2870 µM); against Aspergillus niger, 100 µg/mL (≈ 287 µM). Moreover, in the assay on Aspergillus clavatus, the MIC was 1000 µg/mL (≈ 2870 µM).
For the compound `N#CCCCSC1=NC(c2ccc(N)cc2)=CC(c2cccc(O)c2)N1` (configuration not stated), the minimum inhibitory concentration (MIC) with Escherichia coli is 500 µg/mL (≈ 1370 µM); in the assay on Pseudomonas aeruginosa, 500 µg/mL (≈ 1370 µM); against Staphylococcus aureus, 250 µg/mL (≈ 686 µM); in the assay on Streptococcus pyogenes it was 200 µg/mL (≈ 549 µM); in the assay with Candida albicans, 50 µg/mL (≈ 137 µM); in the assay with Aspergillus niger, 500 µg/mL (≈ 1370 µM). Also, in the assay on Aspergillus clavatus, the lowest concentration to inhibit growth (MIC) was 500 µg/mL (≈ 1370 µM).
Turning to `COc1ccc(C2C=C(c3ccc(N)cc3)N=C(S)N2)cc1` (configuration not stated), 250 µg/mL (≈ 803 µM) was the least that counted as inhibitory against Pseudomonas aeruginosa (MIC).
With `N#CCCCSC1=NC(c2ccc(N)cc2)=CC(c2ccc(Cl)cc2)N1` (configuration not stated), the minimum inhibitory concentration (MIC) in the assay with Escherichia coli was found to be 100 µg/mL (≈ 261 µM); in the assay on Pseudomonas aeruginosa it was 100 µg/mL (≈ 261 µM); with Staphylococcus aureus, 500 µg/mL (≈ 1310 µM); against Streptococcus pyogenes, 100 µg/mL (≈ 261 µM); against Candida albicans it was 1000 µg/mL (≈ 2610 µM); in the assay with Aspergillus niger it was 500 µg/mL (≈ 1310 µM). For the same compound, inhibition of growth in the assay with Aspergillus clavatus (MIC) required 100 µg/mL (≈ 261 µM).
Take `CN(C)c1ccc(C2C=C(c3ccc(N)cc3)N=C(SCCCC#N)N2)cc1` (configuration not stated): the minimum inhibitory concentration (MIC) against Escherichia coli was 500 µg/mL (≈ 1280 µM); against Pseudomonas aeruginosa it was 250 µg/mL (≈ 638 µM); in the assay on Staphylococcus aureus it was 250 µg/mL (≈ 638 µM); in the assay on Streptococcus pyogenes, 1000 µg/mL (≈ 2550 µM); in the assay on Candida albicans, 1000 µg/mL (≈ 2550 µM); in the assay with Aspergillus niger, 500 µg/mL (≈ 1280 µM). In the assay on Aspergillus clavatus, this compound returned an MIC of 1000 µg/mL (≈ 2550 µM).
As to `CC1(C)S[C@@H]2[C@H](NC(=O)[C@H](N)c3ccccc3)C(=O)N2[C@H]1C(=O)O` [AMPICILLIN], the minimal inhibitory concentration (MIC) with Escherichia coli was 100 µg/mL (≈ 286 µM); in the assay on Pseudomonas aeruginosa, 100 µg/mL (≈ 286 µM); against Staphylococcus aureus it was 250 µg/mL (≈ 715 µM); with Streptococcus pyogenes, 100 µg/mL (≈ 286 µM).
`COc1cc(C2C=C(c3ccc(N)cc3)N=C(S)N2)ccc1O` (configuration not stated): the MIC in the assay on Escherichia coli and with Streptococcus pyogenes was 250 µg/mL (≈ 764 µM) in each case.
Regarding `Nc1ccc(C2=CC(c3ccccc3)NC(S)=N2)cc1` (configuration not stated), the MIC with Pseudomonas aeruginosa turned out to be 250 µg/mL (≈ 888 µM).
Turning to `Cc1ccccc1C1C=C(c2ccc(N)cc2)N=C(SCCCC#N)N1` (configuration not stated), the MIC in the assay on Escherichia coli was found to be 500 µg/mL (≈ 1380 µM); in the assay on Pseudomonas aeruginosa, 250 µg/mL (≈ 690 µM); in the assay on Staphylococcus aureus, 1000 µg/mL (≈ 2760 µM); in the assay on Streptococcus pyogenes it was 1000 µg/mL (≈ 2760 µM); in the assay with Candida albicans it was 1000 µg/mL (≈ 2760 µM); in the assay on Aspergillus niger, 500 µg/mL (≈ 1380 µM). For the same compound, the MIC against Aspergillus clavatus turned out to be 1000 µg/mL (≈ 2760 µM).
As for `N#CCCCSC1=NC(c2ccc(N)cc2)=CC(c2ccccc2O)N1` (configuration not stated), the MIC came out at 50 µg/mL (≈ 137 µM) against Escherichia coli; 250 µg/mL (≈ 686 µM) with Pseudomonas aeruginosa; 250 µg/mL (≈ 686 µM) against Staphylococcus aureus; 100 µg/mL (≈ 274 µM) in the assay on Streptococcus pyogenes; 200 µg/mL (≈ 549 µM) against Candida albicans; 100 µg/mL (≈ 274 µM) against Aspergillus niger. Besides, in the assay on Aspergillus clavatus, the MIC was 500 µg/mL (≈ 1370 µM).
Turning to `N#CCCCSC1=NC(c2ccc(N)cc2)=CC(c2ccc([N+](=O)[O-])cc2)N1` (configuration not stated), the minimal inhibitory concentration (MIC) was found to be 500 µg/mL (≈ 1270 µM) against Escherichia coli; 100 µg/mL (≈ 254 µM) against Pseudomonas aeruginosa; 500 µg/mL (≈ 1270 µM) against Staphylococcus aureus; 500 µg/mL (≈ 1270 µM) in the assay with Streptococcus pyogenes; 500 µg/mL (≈ 1270 µM) in the assay on Candida albicans; 50 µg/mL (≈ 127 µM) against Aspergillus niger. The compound also yielded an MIC in the assay with Aspergillus clavatus of 200 µg/mL (≈ 508 µM).
`Nc1ccc(C2=CC(c3ccc(O)cc3)NC(S)=N2)cc1` (configuration not stated): the MIC against Escherichia coli and with Streptococcus pyogenes was 250 µg/mL (≈ 841 µM) each time.
